Source: ChEMBL document CHEMBL1155092, “Antibacterial activity of labdane diterpenoids from Stemodia foliosa” (2008)
Converted amounts (≈) assume the structure as drawn. The source made the active and inactive calls. The rule behind the calls is not given here.

Assays:
Staphylococcus aureus [1] = experiment: Antimicrobial activity against Staphylococcus aureus; assay type: functional
[2] = system: Mycolicibacterium smegmatis; experiment: Antimicrobial activity against Mycobacterium smegmatis; assay type: functional
Bacillus subtilis [3] = experiment: Antimicrobial activity against Bacillus subtilis; assay type: functional
Bacillus anthracis [4] = experiment: Antimicrobial activity against Bacillus anthracis; assay type: functional
Mycolicibacterium phlei [5] = experiment: Antimicrobial activity against Mycobacterium phlei; assay type: functional
Micrococcus luteus [6] = experiment: Antimicrobial activity against Micrococcus luteus; assay type: functional
Micrococcus luteus [7] = experiment: Antimicrobial activity against Micrococcus luteus at 50 ug/ml; assay type: functional, organism-based
Bacillus anthracis [8] = experiment: Antimicrobial activity against Bacillus anthracis at 50 ug/ml; assay type: functional, organism-based
Mycolicibacterium phlei [9] = experiment: Antimicrobial activity against Mycobacterium phlei at 50 ug/ml; assay type: functional, organism-based
Bacillus subtilis [10] = experiment: Antimicrobial activity against Bacillus subtilis at 50 ug/ml; assay type: functional, organism-based
Staphylococcus aureus [11] = experiment: Antimicrobial activity against Staphylococcus aureus at 50 ug/ml; assay type: functional, organism-based
Bacillus cereus [12] = experiment: Antimicrobial activity against Bacillus cereus at 50 ug/ml; assay type: functional, organism-based
[13] = system: Mycolicibacterium smegmatis; experiment: Antimicrobial activity against Mycobacterium smegmatis at 50 ug/ml; assay type: functional, organism-based
Bacillus cereus [14] = experiment: Antimicrobial activity against Bacillus cereus; assay type: functional

Compound | MIC (Staphylococcus aureus [1]) [µg/mL] | MIC [2] [µg/mL] | MIC (Bacillus subtilis [3]) [µg/mL] | MIC (Bacillus anthracis [4]) [µg/mL] | MIC (Mycolicibacterium phlei [5]) [µg/mL] | MIC (Micrococcus luteus [6]) [µg/mL] | Activity (Micrococcus luteus [7]) | Activity (Bacillus anthracis [8]) | Activity (Mycolicibacterium phlei [9]) | Activity (Bacillus subtilis [10]) | Activity (Staphylococcus aureus [11]) | Activity (Bacillus cereus [12]) | Activity [13] | MIC (Bacillus cereus [14]) [µg/mL]
CC[C@H]1OC(=O)[C@H](C)[C@@H](O[C@H]2C[C@@](C)(OC)[C@@H](O)[C@H](C)O2)[C@H](C)[C@@H](O[C@@H]2O[C@H](C)C[C@H](N(C)C)[C@H]2O)[C@](C)(OC)C[C@@H](C)C(=O)[C@H](C)[C@@H](O)[C@]1(C)O [CLARITHROMYCIN] | 0.8 (≈ 1.07 µM) | 0.5 (≈ 0.668 µM) | 1.7 (≈ 2.27 µM) | 1.3 (≈ 1.74 µM) | 0.5 (≈ 0.668 µM) | 2 (≈ 2.67 µM) | – | – | – | – | – | – | – | –
C=C[C@@]1(C)CC[C@@H]2[C@@]3(C)CCCC(C)(C)[C@@H]3[C@@H](OC(C)=O)C[C@@]2(C)O1 | – | – | – | – | – | – | inactive | inactive | inactive | inactive | inactive | inactive | inactive | –
C=C[C@@]1(C)CC[C@@H]2[C@@]3(C)CCCC(C)(C)[C@@H]3[C@@H](OC(=O)CC(=O)O)C[C@@]2(C)O1 | 15 (≈ 38.2 µM) | 7 (≈ 17.8 µM) | 15 (≈ 38.2 µM) | 20 (≈ 51 µM) | 9 (≈ 22.9 µM) | 17 (≈ 43.3 µM) | – | – | – | – | – | – | – | 15 (≈ 38.2 µM)
C=C[C@@]1(C)CC[C@@H]2[C@@]3(C)CCCC(C)(C)[C@@H]3[C@@H](OC(=O)CC(=O)OCCCC)C[C@@]2(C)O1 | – | – | – | – | – | – | inactive | inactive | inactive | inactive | inactive | inactive | inactive | –
